Reference: patent US20190083462A1, “PREVENTION OF NSAID ENTEROPATHY WITH MICROBIOTA-DERIVED TRYPTOPHAN-METABOLITE” (THE TEXAS A&M UNIVERSITY SYSTEM, priority 2016, published 2019)

Assays:
C57BL/6J mice = assay: Histology and small intestinal morphometric measurements; type: in vivo; details: Swiss-rolled H & E stained small intestinal sections, n=5/group
Method: Eight- to 10-week-old specific-pathogen-free C57BL/6J mice were purchased and allowed to acclimate for 2 weeks. Mice were fed standardized laboratory rodent diet and sterile water ad libitum. […] Mice were then rehoused on the basis of treatment group assignment, with 5 animals/group-cage. To induce NSAID enteropathy, mice in group 1 were gavaged once daily with indomethacin (5 mg/kg; for 7 days; Sigma Aldrich, St. Louis, Mo.) dissolved in dimethylysulfoxide (DMSO) (Sigma Aldrich, St. Louis, Mo.) and further diluted in phosphate buffered saline (PBS). […] All mice were gavaged with equal volumes (200 μL) and equal concentrations of DMSO (0.001%).
The slides were scored as previously described for intestinal inflammation (Jia Q, Lupton J R, Smith R, Weeks B R, Callaway E, Davidson L A, Kim W, Fan Y Y, Yang P, Newman R A, et al. Reduced colitis-associated colon cancer in Fat-1 (n-3 fatty acid desaturase) transgenic mice. Cancer Research 2008; 68:3985-91). Briefly, mucosal injury was determined by the following parameters scored from 0 (no evidence) to 3 (marked): mucosal ulceration, mucosal erosion, and presence of squamified epithelium. Inflammatory changes were scored similarly based on the following parameters: lymphocytic infiltration, plasma cell infiltration, and neutrophilic infiltration. Finally, an overall evidence of injury score was used to document total injury graded from 0 (none) to 4 (marked). Morphological parameters were obtained from digitally scanned slides using SPOT vr 5.0 software. Three sets of measurements from 3 separate sections were recorded for each animal by an observer blinded to treatment group. Measurements consisted of villus height, crypt depth, and submucosal mural thickness.

fecal microbiota = assay: Fecal microbiota 16S rRNA sequencing (ANOSIM, SIMPER); type: in vivo, mice; details: for mean % abundance: day 7 feces
[1] = test system: fecal tryptophan metabolites; assay: Fecal tryptophan metabolites by LC-MS; type: in vivo, mice
Excerpt: (§1) Eight- to 10-week-old specific-pathogen-free C57BL/6J mice were purchased and allowed to acclimate for 2 weeks. Mice were fed standardized laboratory rodent diet and sterile water ad libitum. Mice were randomly divided into the following 4 groups (n=5 mice/group): 1) NSAID (indomethacin); 2) indole; 3) NSAID+indole; and, 4) untreated controls. Mice were then rehoused on the basis of treatment group assignment, with 5 animals/group-cage. To induce NSAID enteropathy, mice in group 1 were gavaged once daily with indomethacin (5 mg/kg; for 7 days; Sigma Aldrich, St. Louis, Mo.) dissolved in dimethylysulfoxide (DMSO) (Sigma Aldrich, St. Louis, Mo.) and further diluted in phosphate buffered saline (PBS). Mice in group 2 received indole by gavage (20 mg/kg; once daily for 7 days; Sigma Aldrich, St. Louis, Mo.) dissolved in sterile water warmed to 55° C. Mice in group 3 received indole co-administered with indomethacin by gavage at the dosages described above. All mice were gavaged with equal volumes (200 μL) and equal concentrations of DMSO (0.001%).
Feces were collected daily by placing individual animals in sterile plastic cups that were RNase- and DNase-free until they passed feces. The mice were immediately returned to their home cages and the feces immediately flash frozen at −80° C. All animals were euthanized via CO2 asphyxiation on day 8 (i.e., after 7 days of treatment). The small intestine was harvested, opened longitudinally, rinsed with ice-cold PBS, and the distal ⅓ of the intestinal mucosa was scraped for tissue gene expression analysis. The remaining small intestine was fixed in 4% paraformaldehyde, Swiss-rolled, paraffin-embedded, and stained with hematoxylin and eosin. The spleen and mesenteric lymph nodes (MLN) were harvested, and immediately placed in ice cold RPMI-1640-c+10% fetal calf serum (FCS: Life Technologies, Carlsbad, Calif.), homogenized, and prepared as a single cell suspension for flow cytometric analysis as previously described (Wang N, Strugnell R, Wijburg O, Brodnicki T. Measuring bacterial load and immune responses in mice infected with Listeria monocytogenes. Journal of Visualized Experiments: JoVE 2011).
Metabolites from the fecal contents were extracted using a solvent-based method as previously described (Sridharan G V, Choi K, Klemashevich C, Wu C, Prabakaran D, Pan L B, Steinmeyer S, Mueller C, Yousofshahi M, Alaniz R C, et al. Prediction and quantification of bioactive microbiota metabolites in the mouse gut. Nature Communications 2014; 5:5492). Briefly, fecal pellets were homogenized using a homogenizer (Omni International) with equal volume of cold methanol and half volume of chloroform. The samples were then centrifuged at 10,000 g at 4° C. (Thermo Fisher Scientific) for 10 min. Supernatant was passed through a 70-μm sterile nylon cell strainer (Falcon) and 0.6 ml of ice cold water was added. The samples were vortex and centrifuged again at 10,000 g for 5 minutes. The upper phase and lower phase were collected and 400 μl of upper phase was dried to a pellet using a vacufuge (Eppendorf, Hauppauge, N.Y.), and then reconstituted in 50 μl of methanol/water (1:1, v/v). The samples were stored at −80° C. until analysis. Tryptophan metabolites in the samples were detected and quantified on a triple quadrupole linear ion trap mass spectrometer (3200 QTRAP, AB SCIEX, Foster City, Calif.) coupled to a binary pump HPLC (Prominence LC-20, Shimazu, Concord, Ontario, Canada).

small intestinal mucosa = assay: RNA sequencing (RNA-Seq) of the distal small intestinal mucosa; type: in vivo, mice; details: indole co-administered with NSAID; degree of up-regulation vs control mice
Excerpt: as §1
Feces were collected daily by placing individual animals in sterile plastic cups that were RNase- and DNase-free until they passed feces. The mice were immediately returned to their home cages and the feces immediately flash frozen at −80° C. […]
RNA was extracted from the mucosal scrapings using an RNeasy mini kit (QIAGEN, Redwood City, Calif.) following the manufacturer's instructions and including on-column DNase treatment. RNA quantity was determined using a Nanodrop spectrophotometer (Fisher Thermoscientific) and the quality was assessed using the Nano6000 chip on a Bioanalyzer 2100(Agilent Technologies). […] Differentially expressed genes were determined using EdgeR based on the matrix of gene counts (Robinson M D, McCarthy D J, Smyth G K. edgeR: a Bioconductor package for differential expression analysis of digital gene expression data. Bioinformatics (Oxford, England) 2010; 26:139-40). Gene lists were analyzed through use of QIAGEN's Ingenuity® Pathway Analysis (IPA, QIAGEN, Redwood City, Calif. http://www.qiagen.com/ingenuity). […]

[2] = test system: intestinal epithelial cells; details: cited from earlier work
[3] = unweighted Unifrac distance metric, day 7

**Q.** What does the source list for `c1ccc2[nH]ccc2c1` [Indole, indole]?
**A.** microscopic pathology scores (C57BL/6J mice): not different; abundance of members of the phyla Firmicutes and Bacteroidetes (fecal microbiota; fecal 16S rRNA sequences, Day 0 vs Day 7): no significant difference; mean % abundance (fecal microbiota; phylum Unassigned, Other): 1.90E−03%; mean % abundance (fecal microbiota; phylum k_Bacteria, Other): 3.81E−03%; mean % abundance (fecal microbiota; phylum k_Bacteria, p_Acidobacteria): 0%; mean % abundance (fecal microbiota; phylum k_Bacteria, p_Actinobacteria): 0.0381%; mean % abundance (fecal microbiota; phylum k_Bacteria, p_Bacteroidetes): 24.6%; mean % abundance (fecal microbiota; phylum k_Bacteria, p_Cyanobacteria): 9.51E−03%; mean % abundance (fecal microbiota; phylum k_Bacteria, p_Firmicutes): 74.7%; mean % abundance (fecal microbiota; phylum k_Bacteria, p_Proteobacteria): 0.0285%; mean % abundance (fecal microbiota; phylum k_Bacteria, p_Tenericutes): 0.656%; mean % abundance (fecal microbiota; phylum k_Bacteria, p_Verrucomicrobia): 1.90E−03%; Pairwise ANOSIM R-value vs Control (fecal microbiota; [3]): 0.2; Pairwise ANOSIM R-value vs NSAID (fecal microbiota; [3]): 0.2615; Pairwise ANOSIM R-value vs NSAID + Indole (fecal microbiota; [3]): 0.1938; Magnitude of change in fecal concentration between Days 0 and 7 ([1]; Indole, group effect ↑): 5.3; fecal indole concentrations relative to controls ([1]; feces): significantly more indole; transcription of pro-inflammatory cytokines (IL-1α, IL-1β, TNF, IL-6) and chemokines (CXCL1, CXCL3, CXCL2, CXCL5, CCL2, CCL7) (small intestinal mucosa): not significantly different than control mice; NF-κB signaling [2]: inhibit; anti-inflammatory effects and expression of genes associated with tight cell junctions ([2]; in vitro, earlier work of the inventors): has anti-inflammatory effects on intestinal epithelial cells and upregulates expression of genes associated with tight cell junctions
